Data reported in patent EP0354042A2, “Aminobenzoic-acid derivatives to reduce side effects induced by an administration of immuno-suppressant” (priority 1988, dated 1990).

Columns and labels:
Bacillus subtilis H17 = assay: Mutagenicity Rec-assay, recombination repair proficient strain; details: 16 hours at 37°C
Description: (§1) First, mutagenecity was studied with Rec-assay. […] The present substance was dissolved with sterlized water, 0.05 ml of the solution was absorbed by a round filter paper having a diameter of 8 mm and immediately the filter paper was laid on the medium (B-II agar) in a manner to cover each of the satrt point of the streak. Then, the mdium was cultured for 16 hours at a temperature of 37°C and measured growth inhibited area. Kanamycin was used as a negative control and mitomycin as a positive control.

Wistar male rats [1] = assay: Saccharide tolerance test (pancreas function) of rats given CsA with the present substance; type: in vivo; details: CsA 25 mg/kg/day i.p. 3 weeks plus present substance 300 mg/kg/day orally
Description: (§2) Various clearance tests and a saccharide tolerance test were performed after completion of the administrations. Then, after sacrificing the rats, their blood was taken for serum biochemical and general blood tests.

Wistar male rats [2] = assay: Serum biochemical test, total bilirubin (liver function) of rats given CsA with the present substance; type: in vivo; details: CsA 25 mg/kg/day i.p. 3 weeks plus present substance 300 mg/kg/day orally
Description: as §2

[3] = Body weight of rats given CsA with the present substance; type: in vivo, Wistar male rats; details: at completion of the test; CsA 25 mg/kg/day i.p. 3 weeks plus present substance 300 mg/kg/day orally
Description: as §2

Jcl:ICR mice = assay: Acute toxicity (LD50, Litchfield-Wilcoxon); type: in vivo; details: observed 7 days; for LD₅₀ Value Intraperitoneal: in physiological saline solution; for LD₅₀ Value Oral: oral by stomach sonde, in distilled water
Description: The acute toxicity was studied with Jcl:ICR mice through intraperitoneal route and oral route. For intraperitoneal route, the present substance was dissolved in a physiological saline solution and a predetermined dose of the substance was administered with an injector to the cavity. For oral route, the present substance was dissolved in a distilled water and administered forcibly through a stomach sonde.
After the administration, observation of toxicopathic symptoms of the mice were continued for 7 days and based on time to time death rates of the mice, LD₅₀ values were calculated. Both surviving and dead mice were anatomized and observed certain organs.

Bacillus subtilis M45 = assay: Mutagenicity Rec-assay, recombination repair deficient strain; details: for Growth Inhibited Area M45: 16 hours at 37°C; for Growth Inhibited Area M45 - H17: difference between strains
Description: as §1

human lymphocyte = assay: Mixed lymphocyte culture, 3H-thymidine uptake (proliferation of lymphocytes); type: cell-based; details: CsA 0.1 µg/ml plus present substance 100 µg/ml, cultured 6 days;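 further: percent suppression of proliferation derived from uptake with CsA alone versus CsA plus substance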
Description: A mixture of 50 µl of human lymphocyte (1.6 x 10⁶/ml) with 50 µl of the lymphocytes treated with mitomycin C (MMC) (1.7 x 10⁶/ml) was cultured for 6 days and an uptake of ³H-thymidine, an index of proliferation of lymphocyte, was studied. The medium used for culture comprised bovine fetal serum (10% in quantity) and RPMI 1640 (90% in quantity). […] From the calculated ratio, the effects of the present substance on immuno function were studied.

Wistar male rats [4] = assay: Kidney function (inulin clearance, serum creatinine) of rats given CsA with the present substance; type: in vivo; details: CsA 25 mg/kg/day i.p. 3 weeks plus present substance 300 mg/kg/day orally
Description: as §2

[5] = system: TA98 of Salmonella typhimurium; assay: Reversion assay (reversion colony test) TA98; type: cell-based; details: 5,000 µg/disk, 37°C for 2 days; Drug-free Control 13
Description: (§3) In addition, a reversion assay was performed using TA98 and TA100 of Salmonella typhimurium (both are histidine-requiring bacteria).
(§4) 10% by volume of 0.5 mM bithion solution containing 0.5 mM histidine was added to a soft agar solution (prepared with 6g of NaCl, 6g of agar and 1,000 ml of distilled water). Then, 0.1 ml of a solution containing 1 x 10⁸ of the bacteria and 0.1 ml of a solution of the present substance were added to 2 ml of the soft agar solution, mixed well and obtained soft agar solution was multilayered on a minimal agar medium. The medium layered was cultured at 37°C for 2 days and number of reversion colonies was counted. Furylfuramide (AF2) was used as a positive control.

[6] = system: TA100 of Salmonella typhimurium; assay: Reversion assay (reversion colony test) TA100; type: cell-based; details: 5,000 µg/disk, 37°C for 2 days; Drug-free Control 149
Description: as §3, §4

| SMILES | Growth Inhibited Area H17 (Bacillus subtilis H17; 500 µg/disk) [mm] | Growth Inhibited Area H17 (Bacillus subtilis H17; 5,000 µg/disk) [mm] | Blood sugar value measured 10 minutes after the test (Wistar male rats [1]) [mg/dL] | Insuline Value 10 Min.After The Test (Wistar male rats [1]) [mµ/ml] | Insuline Value Before The Test (Wistar male rats [1]) [mµ/ml] | TBI (seerum total bilirubin value) (Wistar male rats [2]) [mg/dL] | Body Weight [3] [g] | LD₅₀ Value Intraperitoneal (Jcl:ICR mice) [mg/kg] | LD₅₀ Value Oral (Jcl:ICR mice) [mg/kg] | Growth Inhibited Area M45 (Bacillus subtilis M45; 500 µg/disk) [mm] | Growth Inhibited Area M45 - H17 (Bacillus subtilis M45; 500 µg/disk) [mm] | Growth Inhibited Area M45 (Bacillus subtilis M45; 5,000 µg/disk) [mm] | Growth Inhibited Area M45 - H17 (Bacillus subtilis M45; 5,000 µg/disk) [mm] | Depressing Ratio (human lymphocyte) [%] | Kidney Function Inulin Clearance (Wistar male rats [4]) [mL/min] | Kidney Function Serum Creatinine (Wistar male rats [4]) [mg/dL] | No. of Reversion Colony TA98 [5] [n/plate] | No. of Reversion Colony TA100 [6] [n/plate] |
| --- | --- | --- | --- | --- | --- | --- | --- | --- | --- | --- | --- | --- | --- | --- | --- | --- | --- | --- |
| C[C@@H]1OC(Nc2ccc(C(=O)O)cc2)[C@H](O)[C@H](O)[C@H]1O (stereo partly drawn) [Compound 18, p-Aminobenzoic acid-N-L-rhamnoside] | 0 | 0 | 573 | 6.44 | 4.30 | 0.29 | 238 | 15000 | 12800 | 0 | 0 | 0 | 0 | 27 | 1.97 | 0.64 | 4 | 73 |
| CC1OC(Nc2ccccc2C(=O)[O-])C(O)C(O)C1O.[Na+] [Compound 20, o-Aminobenzoic acid-N-L-rhamnoside] | 0 | 2 | 576 | 6.38 | 4.34 | 0.31 | 233 | > 15000 | 12500 | 0 | 0 | 6 | 4 | 26 | 1.95 | 0.64 | 9 | 61 |
| O=C(O)c1ccc(NC2O[C@H](CO)[C@@H](O)[C@H](O)[C@@H]2O)cc1 (stereo partly drawn) [Compound 22, p-Aminobenzoic acid-N-D-mannoside] | 0 | 0 | 569 | 6.50 | 4.45 | 0.27 | 245 | > 10000 | >10000 | 0 | 0 | 0 | 0 | 28 | 2.05 | 0.63 | 5 | 138 |
| O=C(O)c1cccc(NC2O[C@H](CO)[C@@H](O)[C@H](O)[C@@H]2O)c1 (stereo partly drawn) [Compound 24, m-Aminobenzoic acid-N-D-mannoside] | 0 | 1 | 578 | 6.37 | 4.40 | 0.30 | 240 | > 10000 | > 10000 | 0 | 0 | 7 | 6 | 27 | 2.00 | 0.64 | 6 | 90 |
